Columns and labels:
Experiment in all cases: relative viability (nuclei count vs DMSO), 5 days (fraction); higher = more cells survive
[1] = compound: O=C(O)c1ccc2c(c1)nc(Nc1cccc(Cl)c1)c1ccncc12 [Silmitasertib] + CS(=O)(=O)CCNCc1ccc(-c2ccc3ncnc(Nc4ccc(OCc5cccc(F)c5)c(Cl)c4)c3c2)o1 [Lapatinib] (partner 2 µM)
Summary of the method: (§1)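 Each reported value is a median over duplicate plates. It expresses relative viability: treated-well nuclei count divided by vehicle-well nuclei count. Lung cancer cell lines in 1536-well plates were dosed by pin tool a day after seeding, alone with one drug or with a fixed anchor-drug dose plus five library-drug doses (not always all listed) in √10 steps, and nuclei were counted after 5 days.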

[2] = compound: O=C(O)c1ccc2c(c1)nc(Nc1cccc(Cl)c1)c1ccncc12 [Silmitasertib] + CS(=O)(=O)N1CCN(Cc2cc3nc(-c4cccc5[nH]ncc45)nc(N4CCOCC4)c3s2)CC1 [Pictilisib] (partner 1 µM)
Summary of the method: as §1

[3] = compound: O=C(O)c1ccc2c(c1)nc(Nc1cccc(Cl)c1)c1ccncc12 [Silmitasertib] + Cc1nc(NC(=O)N2CCC[C@H]2C(N)=O)sc1-c1ccnc(C(C)(C)C(F)(F)F)c1 [Alpelisib] (partner 2 µM)
Summary of the method: as §1

[4] = compound: O=C(O)c1ccc2c(c1)nc(Nc1cccc(Cl)c1)c1ccncc12 [Silmitasertib] + Cc1nc(Nc2ncc(C(=O)Nc3c(C)cccc3Cl)s2)cc(N2CCN(CCO)CC2)n1 [Dasatinib] (partner 0.075 µM)
Summary of the method: as §1

[5] = compound: O=C(O)c1ccc2c(c1)nc(Nc1cccc(Cl)c1)c1ccncc12 [Silmitasertib] + N=C(N)NC(=N)NCCc1ccccc1 [Phenformin] (partner 250 µM)
Summary of the method: as §1

Row | Cell Line | relative viability ([1]; first compound 0.04 µM) | relative viability ([1]; first compound 1.265 µM) | relative viability ([1]; first compound 4 µM) | relative viability ([2]; first compound 0.04 µM) | relative viability ([2]; first compound 0.4 µM) | relative viability ([2]; first compound 1.265 µM) | relative viability ([2]; first compound 4 µM) | relative viability ([3]; first compound 0.04 µM) | relative viability ([3]; first compound 1.265 µM) | relative viability ([3]; first compound 4 µM) | relative viability ([4]; first compound 0.04 µM) | relative viability ([4]; first compound 0.4 µM) | relative viability ([4]; first compound 1.265 µM) | relative viability ([4]; first compound 4 µM) | relative viability ([5]; first compound 0.04 µM) | relative viability ([5]; first compound 0.4 µM) | relative viability ([5]; first compound 1.265 µM) | relative viability ([5]; first compound 4 µM) | relative viability ([1]; first compound 0.4 µM) | relative viability ([3]; first compound 0.4 µM)
1 | HCC-366 | 1.2 | 0.784 | 0.12 | 0.138 | 0.137 | 0.0849 | 0.141 | 0.453 | 0.317 | 0.383 | 0.57 | 0.48 | 0.525 | 0.379 | 0.698 | 0.42 | 0.6 | 0.24 |  | 
2 | HCC-827 | 0.197 | 0.193 | 0.135 | 1.04 |  | 0.751 | 0.788 | 1.03 | 1.07 | 1.03 | 0.342 |  | 0.259 | 0.274 | 0.436 |  | 0.413 | 0.376 |  | 
3 | HOP-62 | 1.07 | 0.878 | 0.229 | 0.809 |  | 0.654 | 0.279 | 1.03 | 0.867 | 0.678 | 0.683 |  | 0.639 | 0.567 | 0.624 |  | 0.662 | 0.608 |  | 
4 | IA-LM | 1.1 | 0.967 | 0.203 | 0.346 | 0.267 | 0.233 | 0.149 | 0.717 | 0.942 | 0.84 |  |  |  |  |  |  |  |  | 0.615 | 0.901
5 | LC-2-ad | 1.06 | 0.951 | 0.233 | 0.448 | 0.443 | 0.525 | 0.332 | 0.78 | 0.783 | 0.827 | 0.915 | 0.482 | 0.384 | 0.276 | 0.645 | 0.59 | 0.488 | 0.314 | 0.855 | 0.87
6 | LCLC-97TM1 | 0.999 | 1.04 | 0.192 | 0.19 |  | 0.15 | 0.112 | 0.216 | 0.165 | 0.14 | 0.976 |  | 0.916 | 0.767 | 0.477 |  | 0.328 | 0.295 |  | 
7 | LCLC-103H |  |  |  | 0.578 | 0.702 | 0.565 | 0.446 | 0.995 | 0.971 | 0.939 | 0.449 | 0.414 | 0.419 | 0.279 | 0.314 | 0.307 | 0.32 | 0.23 |  | 1.01
8 | LK-2 | 1.12 | 0.867 | 0.718 | 0.618 | 0.52 | 0.514 | 0.499 | 1.28 | 0.914 | 0.943 | 0.328 |  | 0.309 | 0.321 | 0.485 |  | 0.415 | 0.271 | 0.928 | 0.921
9 | LOU-NH91 | 0.747 | 0.548 | 0.516 | 0.574 | 0.507 | 0.464 | 0.388 | 0.8 | 0.612 | 0.593 | 0.585 | 0.475 | 0.46 | 0.383 | 0.812 | 0.617 | 0.584 | 0.423 | 0.649 | 0.614
10 | LU99A | 1.04 | 0.613 | 0.588 | 0.325 | 0.331 | 0.297 | 0.291 | 0.502 | 0.399 | 0.471 | 0.478 | 0.46 | 0.369 | 0.434 | 0.883 | 0.883 | 0.848 | 0.518 | 1.03 | 0.521
11 | LXF-289 | 0.931 | 0.999 | 1 | 0.808 |  | 0.772 | 0.79 | 1.06 | 1.09 | 1.07 | 0.181 |  | 0.346 | 0.363 | 0.53 |  | 0.58 | 0.382 |  | 
12 | NCI-H23 | 1.45 | 0.73 | 0.355 | 0.54 |  | 0.38 | 0.26 | 0.762 | 0.67 | 0.547 | 0.793 |  | 0.652 | 0.581 | 0.639 |  | 0.675 | 0.403 |  | 
13 | NCI-H322M | 0.668 | 0.42 | 0.387 | 0.503 | 0.503 | 0.381 | 0.365 | 0.763 | 0.559 | 0.465 | 0.243 | 0.294 | 0.282 | 0.294 | 0.783 | 0.761 | 0.603 | 0.384 | 0.549 | 0.71
14 | NCI-H358 | 0.448 | 0.507 | 0.35 | 0.375 | 0.324 | 0.322 | 0.288 | 0.916 | 0.65 | 0.48 | 0.176 | 0.312 | 0.14 | 0.155 | 0.371 | 0.272 | 0.325 | 0.225 | 0.57 | 0.786
15 | NCI-H441 |  |  |  | 0.469 |  | 0.285 | 0.315 | 0.746 | 0.634 | 0.41 | 0.651 |  | 0.532 | 0.333 | 0.692 |  | 0.739 | 0.335 |  | 
16 | NCI-H460 | 1.21 | 1.02 | 0.305 | 0.424 | 0.412 | 0.314 | 0.3 | 0.488 | 0.466 | 0.421 | 0.56 | 0.445 | 0.44 | 0.448 | 0.523 | 0.525 | 0.583 | 0.414 | 0.997 | 0.512
17 | NCI-H522 |  |  |  |  |  |  |  |  |  |  | 0.876 | 0.785 | 0.788 | 0.849 | 0.669 | 0.554 | 0.626 | 0.678 |  | 
18 | NCI-H1650 | 1.4 | 0.671 | 0.23 | 0.781 | 0.459 | 0.348 | 0.211 |  |  |  | 0.358 | 0.35 | 0.248 | 0.242 | 0.49 | 0.412 | 0.283 | 0.151 | 0.825 | 
19 | NCI-H1703 | 1.27 | 1.01 | 0.892 | 0.25 | 0.291 | 0.228 | 0.252 | 0.334 | 0.392 | 0.452 |  |  |  |  |  |  |  |  | 0.868 | 0.312
20 | SW 900 |  |  |  |  |  |  |  |  |  |  | 0.82 | 0.316 | 0.614 | 0.398 | 0.817 | 0.34 | 0.452 | 0.24 |  | 
